pIC50: −log10 of the molar value.
Columns and labels:
EGFR tyrosine kinase = target: T1, EGFR tyrosine kinase (Homo sapiens, UniProt P00533); assay: Protein tyrosine kinase phosphorylation assay, Test (a), EGFR; type: biochemical; conditions: ATP at Km concentration; read-out: IC50 Test (a): Inhibition of EGFR tyrosine kinase protein phosphorylation
T1 construct: Recombinant intracellular fragments of EGFR, erbB2 and erbB4; made in house; host or cells: baculovirus/Sf21 insect cells
Description: (§1) a) Protein Tyrosine Kinase phosphorylation Assays
(§2) This test measures the ability of a test compound to inhibit the phosphorylation of a tyrosine containing polypeptide substrate by EGFR, erbB2 and erbB4 tyrosine kinase enzyme.
(§3) Recombinant intracellular fragments of EGFR, erbB2 and erbB4 (accession numbers X00588, X03363 and L07868 respectively) were cloned and expressed in the baculovirus/Sf21 system. […]
(§4) Constitutive kinase activity of these recombinant proteins was determined by their ability to phosphorylate a synthetic peptide (made up of a random co-polymer of Glutamic Acid, Alanine and Tyrosine in the ratio of 6:3:1). […]
(§5) The immobilised phospho-peptide product of the reaction was detected by immunological methods. […] After further washing, HRP activity in each well of the plate was measured colorimetrically using 22′-Azino-di-[3-ethylbenzthiazoline sulfonate (6)]diammonium salt crystals (ABTS™ from Roche) as a substrate.
(§6) Quantification of colour development and thus enzyme activity was achieved by the measurement of absorbance at 405 nm on a Molecular Devices ThermoMax microplate reader. Kinase inhibition for a given compound was expressed as an IC50 value. […] The range of phosphorylation was calculated from the positive (vehicle plus ATP) and negative (vehicle minus ATP) control values.

erbB2 tyrosine kinase = target: T2, erbB2 tyrosine kinase (Homo sapiens, UniProt P04626); assay: Protein tyrosine kinase phosphorylation assay, Test (a), erbB2; type: biochemical; conditions: ATP at Km concentration; read-out: IC50 Test (a): Inhibition of erbB2 tyrosine kinase protein phosphorylation
T2 construct: Recombinant intracellular fragments of EGFR, erbB2 and erbB4; made in house; host or cells: baculovirus/Sf21 insect cells
T2 sequence (P04626 676-1255 limits assumed): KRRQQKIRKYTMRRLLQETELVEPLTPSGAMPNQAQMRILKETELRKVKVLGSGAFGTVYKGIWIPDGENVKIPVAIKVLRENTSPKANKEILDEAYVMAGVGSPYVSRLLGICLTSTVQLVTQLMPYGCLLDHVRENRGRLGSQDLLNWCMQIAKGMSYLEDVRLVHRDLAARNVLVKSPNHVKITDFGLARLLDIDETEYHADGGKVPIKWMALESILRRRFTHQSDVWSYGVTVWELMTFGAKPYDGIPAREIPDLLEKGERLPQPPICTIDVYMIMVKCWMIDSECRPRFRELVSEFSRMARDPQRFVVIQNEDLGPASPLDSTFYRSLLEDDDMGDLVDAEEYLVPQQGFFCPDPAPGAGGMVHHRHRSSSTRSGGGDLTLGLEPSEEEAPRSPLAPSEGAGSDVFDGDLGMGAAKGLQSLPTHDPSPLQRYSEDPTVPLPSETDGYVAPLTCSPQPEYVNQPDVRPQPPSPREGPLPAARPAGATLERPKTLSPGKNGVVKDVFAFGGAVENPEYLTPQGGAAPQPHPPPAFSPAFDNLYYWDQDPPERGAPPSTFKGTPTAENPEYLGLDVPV
Description: as §1, §2, §3, §4, §5, §6

T1 sequence (P00533 669-1210 limits assumed): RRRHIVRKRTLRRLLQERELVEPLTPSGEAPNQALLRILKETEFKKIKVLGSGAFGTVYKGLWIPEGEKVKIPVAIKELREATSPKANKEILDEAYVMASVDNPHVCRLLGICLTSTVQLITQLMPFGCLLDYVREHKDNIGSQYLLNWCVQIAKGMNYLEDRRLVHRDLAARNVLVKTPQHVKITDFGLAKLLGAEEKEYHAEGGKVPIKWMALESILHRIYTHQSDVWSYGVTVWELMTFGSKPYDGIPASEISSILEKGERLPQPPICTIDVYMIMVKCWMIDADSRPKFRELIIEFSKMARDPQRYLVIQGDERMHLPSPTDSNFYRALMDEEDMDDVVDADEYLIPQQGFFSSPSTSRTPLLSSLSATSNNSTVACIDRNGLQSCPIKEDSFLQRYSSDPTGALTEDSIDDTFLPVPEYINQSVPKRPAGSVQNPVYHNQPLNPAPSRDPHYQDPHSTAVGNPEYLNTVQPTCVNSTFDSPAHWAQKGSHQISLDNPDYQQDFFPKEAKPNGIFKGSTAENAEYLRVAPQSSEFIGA

pIC50 (EGFR tyrosine kinase) | pIC50 (erbB2 tyrosine kinase) | Structure (SMILES)
6.43 | 7.96 | C[C@@H](Oc1cccc2ncnc(Nc3ccc4c(ccn4Cc4ccccn4)c3)c12)C(=O)N(C)CCO [Example 1, (2R)—N-(2-Hydroxyethyl)-N-methyl-2-[(4-{[1-(pyridin-2-ylmethyl)-1H-indol-5-yl]amino}quinazolin-5-yl)oxy]propanamide]
6.77 | 7.82 | C[C@@H](Oc1cccc2ncnc(Nc3ccc4c(ccn4Cc4ccccn4)c3)c12)C(=O)N(C)C [Example 2, (2R)—N,N-Dimethyl-2-[(4-{[1-(pyridin-2-ylmethyl)-1H-indol-5-yl]amino}quinazolin-5-yl)oxy]propanamide]

From patent US20090239861A1, “QUINAZOLINE DERIVATIVES AS ANTICANCER AGENTS” (priority 2005, published 2009)
